According to PubChem BioAssay AID248 (DTP/NCI, 2004):
Values joined by “and” are separate entries in the source; they are usually repeats but may differ in a detail not shown here. Equal values may be shown once. Inconclusive results and toxic doses are left out.

Test system: L1210 leukemia ip in BDF1 mice, survival T/C
Test: NCI In Vivo Anticancer Drug Screen. Data for tumor model L1210 Leukemia (intraperitoneal) in B6D2F1 (BDF1) mice
Conditions: endpoint: mean survival time, higher = longer survival
Method in brief: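 Tumor cells were implanted, animals were treated, and survival was followed. The result divides the treated measurement by the vehicle-control measurement.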

[1] = dose: 100.0 mg/kg/injection, schedule: Q01DX001 (ip), vehicle: Klucel (hydroxypropylcellulose) (HPC)
[2] = dose: 200.0 mg/kg/injection, schedule: Q01DX001 (ip), vehicle: Klucel (hydroxypropylcellulose) (HPC)
[3] = dose: 400.0 mg/kg/injection, schedule: Q01DX001 (ip), vehicle: Klucel (hydroxypropylcellulose) (HPC)
[4] = dose: 100.0 mg/kg/injection, schedule: Q01DX001 (ip), vehicle: saline
[5] = dose: 100.0 mg/kg/injection, schedule: Q04DX002 (ip), vehicle: saline
[6] = dose: 200.0 mg/kg/injection, schedule: Q04DX002 (ip), vehicle: saline
[7] = dose: 100.0 mg/kg/injection, schedule: Q04DX003 (ip), vehicle: saline
[8] = dose: 200.0 mg/kg/injection, schedule: Q04DX003 (ip), vehicle: saline
[9] = dose: 400.0 mg/kg/injection, schedule: Q04DX003 (ip), vehicle: saline
[10] = dose: 50.0 mg/kg/injection, schedule: Q01DX001 (ip), vehicle: carboxymethylcellulose (CMC)
[11] = dose: 50.0 mg/kg/injection, schedule: Q01DX009 (ip), vehicle: Klucel (hydroxypropylcellulose) (HPC)
[12] = dose: 100.0 mg/kg/injection, schedule: Q01DX009 (ip), vehicle: Klucel (hydroxypropylcellulose) (HPC)
[13] = dose: 100.0 mg/kg/injection, schedule: Q04DX003 (ip), vehicle: Klucel (hydroxypropylcellulose) (HPC)
[14] = dose: 200.0 mg/kg/injection, schedule: Q04DX003 (ip), vehicle: Klucel (hydroxypropylcellulose) (HPC)
[15] = dose: 400.0 mg/kg/injection, schedule: Q04DX003 (ip), vehicle: Klucel (hydroxypropylcellulose) (HPC)
[16] = dose: 100.0 mg/kg/injection, schedule: Q04DX003 (ip), vehicle: other
[17] = dose: 200.0 mg/kg/injection, schedule: Q01DX009 (ip), vehicle: Klucel (hydroxypropylcellulose) (HPC)
[18] = dose: 200.0 mg/kg/injection, schedule: Q04DX003 (ip), vehicle: other

SMILES: Nc1ccc(CC(=O)O)cc1
- T/C [1]: 97 % of control
- T/C [2]: 101 % of control
- T/C [3]: 88 % of control

SMILES: CN(Cc1cnc2nc(N)nc(N)c2n1)c1ccc(C(=O)NC(CCC(=O)O)C(=O)O)c(Cl)c1Cl (stereo unspecified)
- T/C (dose: 12.5 mg/kg/injection, schedule: Q01DX009 (ip), vehicle: sodium bicarbonate): 157 % of control
- T/C (dose: 25.0 mg/kg/injection, schedule: Q01DX009 (ip), vehicle: sodium bicarbonate): 157 % of control
- T/C (dose: 50.0 mg/kg/injection, schedule: Q01DX009 (ip), vehicle: sodium bicarbonate): 155 % of control

SMILES: Cc1cc(NS(=O)(=O)c2ccc(N=Nc3c(N)[nH]c(=O)[nH]c3=O)cc2)nc(C)n1
- T/C [4]: 115 % of control
- T/C (dose: 200.0 mg/kg/injection, schedule: Q01DX001 (ip), vehicle: saline): 96 % of control
- T/C (dose: 400.0 mg/kg/injection, schedule: Q01DX001 (ip), vehicle: saline): 93 % of control

SMILES: CCSC(=N)N
- T/C [5]: 118 % of control
- T/C [6]: 104 % of control
- T/C (dose: 400.0 mg/kg/injection, schedule: Q04DX002 (ip), vehicle: saline): 91 % of control

SMILES: O=c1cccc[nH]1
- T/C (dose: 25.0 mg/kg/injection, schedule: Q01DX009 (ip), vehicle: saline): 100 % of control
- T/C (dose: 45.0 mg/kg/injection, schedule: Q01DX009 (ip), vehicle: saline): 91 % of control
- T/C (dose: 50.0 mg/kg/injection, schedule: Q01DX009 (ip), vehicle: saline): 106 % of control and 93 % of control
- T/C (dose: 65.0 mg/kg/injection, schedule: Q01DX009 (ip), vehicle: saline): 104 % of control
- T/C (dose: 100.0 mg/kg/injection, schedule: Q01DX009 (ip), vehicle: saline): 96 % of control and 110 % of control and 91 % of control
- T/C [5]: 95 % of control
- T/C [7]: 91 % of control
- T/C (dose: 150.0 mg/kg/injection, schedule: Q01DX009 (ip), vehicle: saline): 102 % of control
- T/C (dose: 200.0 mg/kg/injection, schedule: Q01DX009 (ip), vehicle: saline): 109 % of control and 110 % of control
- T/C [6]: 100 % of control
- T/C [8]: 91 % of control
- T/C [9]: 92 % of control

SMILES: CCCOC(=O)c1ccc(NCC(C)(C)N(C)C)cc1
- T/C [7]: 100 % of control
- T/C [8]: 97 % of control
- T/C [9]: 97 % of control

SMILES: Nc1nc(N)c2c(n1)CN(Cc1ccccc1)C2
- T/C (dose: 25.0 mg/kg/injection, schedule: Q01DX001 (ip), vehicle: carboxymethylcellulose (CMC)): 103 % of control
- T/C [10]: 103 % of control

SMILES: Cc1ccc(NC(=O)c2ccc([N+](=O)[O-])cc2)cc1Cl
- T/C (dose: 25.0 mg/kg/injection, schedule: Q01DX009 (ip), vehicle: Klucel (hydroxypropylcellulose) (HPC)): 95 % of control
- T/C [11]: 103 % of control
- T/C [1]: 95 % of control
- T/C [12]: 103 % of control
- T/C [13]: 93 % of control
- T/C [2]: 106 % of control
- T/C [14]: 95 % of control
- T/C [3]: 98 % of control
- T/C [15]: 98 % of control

SMILES: CNS(=O)(=O)c1ccc(NC(=O)C(Cl)(Cl)Cl)cc1
- T/C (dose: 100.0 mg/kg/injection, schedule: Q01DX001 (ip), vehicle: other): 105 % of control
- T/C [12]: 102 % of control
- T/C [16]: 101 % of control
- T/C (dose: 200.0 mg/kg/injection, schedule: Q01DX001 (ip), vehicle: other): 104 % of control
- T/C [17]: 95 % of control
- T/C [18]: 101 % of control
- T/C (dose: 400.0 mg/kg/injection, schedule: Q01DX001 (ip), vehicle: other): 104 % of control
- T/C (dose: 400.0 mg/kg/injection, schedule: Q01DX009 (ip), vehicle: Klucel (hydroxypropylcellulose) (HPC)): 96 % of control
- T/C (dose: 400.0 mg/kg/injection, schedule: Q04DX003 (ip), vehicle: other): 98 % of control

SMILES: C/C(=C\Cl)C(=O)O
- T/C [7]: 99 % of control
- T/C [8]: 101 % of control

SMILES: C=CCn1c2ccccc2c2cc3cnccc3c(C)c21
- T/C (dose: 6.25 mg/kg/injection, schedule: Q04DX003 (ip), vehicle: Klucel (hydroxypropylcellulose) (HPC)): 100 % of control
- T/C (dose: 12.5 mg/kg/injection, schedule: Q04DX003 (ip), vehicle: Klucel (hydroxypropylcellulose) (HPC)): 97 % of control
- T/C (dose: 25.0 mg/kg/injection, schedule: Q04DX003 (ip), vehicle: Klucel (hydroxypropylcellulose) (HPC)): 100 % of control
- T/C [13]: 102 % of control
- T/C [14]: 97 % of control
- T/C [15]: 105 % of control

SMILES: CC(=O)c1ccc(N)cc1
- T/C (dose: 100.0 mg/kg/injection, schedule: Q01DX009 (ip), vehicle: other): 94 % of control
- T/C (dose: 100.0 mg/kg/injection, schedule: Q04DX002 (ip), vehicle: other): 100 % of control
- T/C (dose: 200.0 mg/kg/injection, schedule: Q01DX009 (ip), vehicle: other): 102 % of control
- T/C (dose: 200.0 mg/kg/injection, schedule: Q04DX002 (ip), vehicle: other): 117 % of control
- T/C (dose: 400.0 mg/kg/injection, schedule: Q04DX002 (ip), vehicle: other): 114 % of control

SMILES: CC(O)C(O)CC(/C=N/NC(=O)c1ccccc1)=N/NC(=O)c1ccccc1 (stereo unspecified)
- T/C [13]: 107 % of control
- T/C [14]: 115 % of control
- T/C [15]: 109 % of control

SMILES: O=c1[nH]c2c(cnn2-c2ccccc2)c(=O)n1O
- T/C (dose: 50.0 mg/kg/injection, schedule: Q01DX001 (ip), vehicle: saline): 97 % of control
- T/C [4]: 100 % of control

SMILES: O=C(O)c1ccccc1-c1ccccc1C(=O)Nc1ccc2c(c1)C(=O)c1ccccc1-2
- T/C (dose: 100.0 mg/kg/injection, schedule: Q04DX003 (ip), vehicle: saline with Tween-80): 104 % of control
- T/C (dose: 200.0 mg/kg/injection, schedule: Q04DX003 (ip), vehicle: saline with Tween-80): 101 % of control
- T/C (dose: 400.0 mg/kg/injection, schedule: Q04DX003 (ip), vehicle: saline with Tween-80): 98 % of control

SMILES: C[C@@H]1C[C@@]2(C)[C@@H](CC[C@@H]3[C@@H]2CC[C@]2(C)OC(=O)CC[C@@H]32)CC1=O
- T/C [11]: 95 % of control
- T/C [12]: 97 % of control
- T/C [16]: 98 % of control
- T/C [17]: 100 % of control
- T/C [18]: 101 % of control

SMILES: COc1ccc(OC)c(/C=N/NC(=O)c2ccccc2Cl)c1
- T/C (dose: 50.0 mg/kg/injection, schedule: Q01DX009 (ip), vehicle: saline with Tween-80): 91 % of control
- T/C (dose: 100.0 mg/kg/injection, schedule: Q01DX009 (ip), vehicle: saline with Tween-80): 97 % of control
- T/C (dose: 200.0 mg/kg/injection, schedule: Q01DX009 (ip), vehicle: saline with Tween-80): 94 % of control

SMILES: O=[N+]([O-])c1ccc(-c2cnc(Br)c3ccccc23)cc1
- T/C (dose: 25.0 mg/kg/injection, schedule: Q04DX003 (ip), vehicle: DMSO): 96 % of control
- T/C (dose: 50.0 mg/kg/injection, schedule: Q04DX003 (ip), vehicle: DMSO): 93 % of control
- T/C (dose: 100.0 mg/kg/injection, schedule: Q04DX003 (ip), vehicle: DMSO): 93 % of control
- T/C (dose: 200.0 mg/kg/injection, schedule: Q04DX003 (ip), vehicle: DMSO): 93 % of control
- T/C (dose: 400.0 mg/kg/injection, schedule: Q04DX003 (ip), vehicle: DMSO): 93 % of control

SMILES: CC(C)CN1CCCC(=O)C(O)CCC1 (stereo unspecified)
- T/C (dose: 100.0 mg/kg/injection, schedule: Q01DX001 (ip), vehicle: acetone): 101 % of control

SMILES: Fc1ccccc1N=C=S
- T/C (dose: 75.0 mg/kg/injection, schedule: Q01DX001 (ip), vehicle: other): 104 % of control
- T/C (dose: 150.0 mg/kg/injection, schedule: Q01DX001 (ip), vehicle: other): 93 % of control

SMILES: CC(=O)OC1CCC2(C)C(=CCC3C2CCC2(C)C3CC3C(c4ccccc4)=NN(c4ccccc4)C32C#N)C1 (stereo unspecified)
- T/C (dose: 100.0 mg/kg/injection, schedule: Q04DX002 (ip), vehicle: Klucel (hydroxypropylcellulose) (HPC)): 103 % of control
- T/C (dose: 200.0 mg/kg/injection, schedule: Q04DX002 (ip), vehicle: Klucel (hydroxypropylcellulose) (HPC)): 92 % of control
- T/C (dose: 400.0 mg/kg/injection, schedule: Q04DX002 (ip), vehicle: Klucel (hydroxypropylcellulose) (HPC)): 98 % of control

SMILES: CCOC(=O)c1cccc2cccc(C(=O)OCC)c12
- T/C [10]: 97 % of control
- T/C (dose: 100.0 mg/kg/injection, schedule: Q01DX001 (ip), vehicle: carboxymethylcellulose (CMC)): 101 % of control
- T/C (dose: 200.0 mg/kg/injection, schedule: Q01DX001 (ip), vehicle: carboxymethylcellulose (CMC)): 101 % of control
- T/C (dose: 400.0 mg/kg/injection, schedule: Q01DX001 (ip), vehicle: carboxymethylcellulose (CMC)): 97 % of control
